Test results as given in publication PMC3904663 (Nature, 2013).
pKd: −log10 of the molar value.

Target: Drosophila melanogaster dopamine transporter (dDATcryst) (Drosophila melanogaster, UniProt Q7K4Y6, V74A/DEL164-206/V275A/V311A/L415A/G538L)
Assay type: binding

**Q.** With `CNCCC(Oc1ccccc1OC)c1ccccc1` (stereo not shown) [nisoxetine] as the molecule, how does the pKd read?
**A.** 7.54
